Here are results for four compounds from ChEMBL document CHEMBL4371010, “Thermodynamics of DNA Minor Groove Binders” (2019).

The test system of experiment [1] is Staphylococcus aureus. Nature of the experiment: Antibacterial activity against methicillin-resistant Staphylococcus aureus. The format is functional.
Experiment [2] relates to Clostridioides difficile. Put plainly: […] activity against Clostridium difficile. The experiment is classed as functional.

For orientation: MIC means the lowest concentration that inhibits growth of the organism.

≈ marks a conversion by molar mass, not a printed value.

As to `COc1cccc(C(=O)Nc2cc(C(=O)Nc3cc(C(=O)Nc4cc(C(=O)NCCCN(C)C)n(C)c4)n(CCC(C)C)c3)n(C)c2)c1`, it took 2 µM (≈ 1.32 µg/mL) to inhibit growth in experiment [1] (MIC). That is a single-digit micromolar value.
`CN[C@H](CC(C)C)C(=O)N[C@H]1C(=O)N[C@@H](CC(N)=O)C(=O)N[C@H]2C(=O)N[C@H]3C(=O)N[C@H](C(=O)N[C@H](C(=O)O)c4cc(O)cc(O)c4-c4cc3ccc4O)[C@H](O)c3ccc(c(Cl)c3)Oc3cc2cc(c3O[C@@H]2O[C@H](CO)[C@@H](O)[C@H](O)[C@H]2O[C@H]2C[C@](C)(N)[C@H](O)[C@H](C)O2)Oc2ccc(cc2Cl)[C@H]1O` [VANCOMYCIN] came in with a minimal inhibitory concentration (MIC) in experiment [2] of 1 µg/mL (≈ 0.69 µM).
On to `CC1(C)S[C@@H]2[C@H](NC(=O)[C@H](N)c3ccc(O)cc3)C(=O)N2[C@H]1C(=O)O` [AMOXICILLIN], for which, in experiment [1], the lowest concentration to inhibit growth (MIC) was 16.1 µM (≈ 5.88 µg/mL). That is a double-digit micromolar value.
The compound `Cn1cc(NC(=O)c2cc(NC(=O)c3ccc(/C=C/c4cnc5ccccc5c4)cc3)cn2C)cc1C(=O)NCCN1CCOCC1` [MGB-BP-3] gave an MIC in experiment [2] of 1 µg/mL (≈ 1.58 µM).
